In ChEMBL document CHEMBL2177026, “Acyl guanidine inhibitors of β-secretase (BACE-1): optimization of a micromolar hit to a nanomolar lead via iterative solid- and solution-phase library synthesis” (J Med Chem, 2012):
Active and inactive are the calls of the source. The rule behind the calls is not given here.

Columns and labels:
Beta-secretase 1 [1] = target: T1, Beta-secretase 1 (Homo sapiens, UniProt P56817); experiment: Inhibition of BACE1 in human KBV1 cells expressing APP 751 Swedish mutant assessed as inhibition of amyloid beta (1 to 40) production after overnight incubation by ELISA in presence of tariquidar; assay type: cell-based
Beta-secretase 1 [2] = target: T1, Beta-secretase 1; experiment: Inhibition of BACE1 in human KBV1 cells expressing APP 751 Swedish mutant assessed as inhibition of amyloid beta (1 to 40) production after overnight incubation by ELISA in absence of tariquidar; assay type: cell-based
Beta-secretase 1 [3] = target: T1, Beta-secretase 1; experiment: Inhibition of BACE1 in human HEK293 cells expressing APP 695 Swedish mutant assessed as inhibition of amyloid beta (1 to 40) production after overnight incubation by ELISA; assay type: cell-based
Beta-secretase 1 [4] = target: T1, Beta-secretase 1; experiment: Displacement of [3H]BMS-599240 from BACE1 expressed in HEK293 cells; assay type: cell-based
Beta-secretase 1 [5] = target: T1, Beta-secretase 1; experiment: Ratio of IC50 for BACE1 in human KBV1 cells expressing APP 751 Swedish mutant in absence of tariquidar to IC50 for BACE1 in human KBV1 cells expressing APP 751 Swedish mutant in presence of tariquidar; assay type: cell-based
[6] = Inhibition of pepsin by radioligand binding assay
[7] = target: T2, Cathepsin E (Homo sapiens) (UniProt P14091); experiment: Inhibition of cathepsin E by radioligand binding assay
T2 sequence (whole entry): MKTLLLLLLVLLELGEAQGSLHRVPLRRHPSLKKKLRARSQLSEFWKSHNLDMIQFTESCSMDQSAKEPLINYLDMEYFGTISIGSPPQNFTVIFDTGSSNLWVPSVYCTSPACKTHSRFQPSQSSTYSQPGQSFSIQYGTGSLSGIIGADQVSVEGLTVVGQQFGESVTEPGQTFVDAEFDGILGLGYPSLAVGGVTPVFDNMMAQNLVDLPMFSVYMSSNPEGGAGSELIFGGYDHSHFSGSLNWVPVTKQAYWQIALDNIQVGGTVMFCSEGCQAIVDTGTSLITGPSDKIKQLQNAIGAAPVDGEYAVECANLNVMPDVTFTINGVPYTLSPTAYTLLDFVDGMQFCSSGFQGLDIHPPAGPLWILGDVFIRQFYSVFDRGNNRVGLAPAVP

[8] = target: Cathepsin D (Homo sapiens) (UniProt P07339); experiment: Inhibition of cathepsin D by radioligand binding assay
[9] = Drug uptake in rat CSF at 40 mg/kg, sc preadministered with ABT measured after 5 hrs by LC/MS/MS analysis; assay type: ADME, organism-based, Cerebrospinal fluid; parameters: dose 40 mg/kg, route subcutaneous; settings: read-out: Drug uptake
[10] = Drug uptake in rat CSF at 15 mg/kg, sc after 5 hrs by LC/MS/MS analysis; assay type: ADME, organism-based, Cerebrospinal fluid; parameters: dose 15 mg/kg, route subcutaneous; settings: read-out: Drug uptake
[11] = Drug uptake in rat CSF at 5 mg/kg, sc measured after 5 hrs by LC/MS/MS analysis; assay type: ADME, organism-based, Cerebrospinal fluid; parameters: dose 5 mg/kg, route subcutaneous; settings: read-out: Drug uptake
[12] = Drug uptake in rat brain at 40 mg/kg, sc preadministered with ABT measured after 5 hrs by LC/MS/MS analysis; assay type: ADME, organism-based; parameters: dose 40 mg/kg, route subcutaneous; settings: read-out: Drug uptake
[13] = Drug uptake in rat brain at 15 mg/kg, sc after 5 hrs by LC/MS/MS analysis; assay type: ADME, organism-based; parameters: dose 15 mg/kg, route subcutaneous; settings: read-out: Drug uptake
[14] = Drug uptake in rat brain at 5 mg/kg, sc measured after 5 hrs by LC/MS/MS analysis; assay type: ADME, organism-based; parameters: dose 5 mg/kg, route subcutaneous; settings: read-out: Drug uptake
[15] = Plasma concentration in rat at 40 mg/kg, sc preadministered with ABT measured after 5 hrs by LC/MS/MS analysis; assay type: ADME, organism-based; parameters: dose 40 mg/kg, route subcutaneous
[16] = Plasma concentration in rat at 5 mg/kg, sc measured after 5 hrs by LC/MS/MS analysis; assay type: ADME, organism-based; parameters: dose 5 mg/kg, route subcutaneous
[17] = Plasma concentration in rat at 15 mg/kg, sc after 5 hrs by LC/MS/MS analysis; assay type: ADME, organism-based; parameters: dose 15 mg/kg, route subcutaneous
Rattus norvegicus [18] = experiment: Antialzheimer activity in rat assessed as amyloid beta (1 to 40) level in CSF at 40 mg/kg, sc preadministered with ABT measured after 5 hrs by ELISA relative to control; assay type: functional; settings: route subcutaneous
Rattus norvegicus [19] = experiment: Antialzheimer activity in rat assessed as amyloid beta (1 to 40) level in CSF at 15 mg/kg, sc measured after 5 hrs by ELISA relative to control; assay type: functional; settings: route subcutaneous
Rattus norvegicus [20] = experiment: Antialzheimer activity in rat assessed as amyloid beta (1 to 40) level in CSF at 5 mg/kg, sc measured after 5 hrs by ELISA relative to control; assay type: functional; settings: route subcutaneous
Rattus norvegicus [21] = experiment: Antialzheimer activity in rat assessed as amyloid beta (1 to 40) level in brain at 40 mg/kg, sc preadministered with ABT measured after 5 hrs by ELISA relative to control; assay type: functional; settings: route subcutaneous
Rattus norvegicus [22] = experiment: Antialzheimer activity in rat assessed as amyloid beta (1 to 40) level in brain at 15 mg/kg, sc measured after 5 hrs by ELISA relative to control; assay type: functional; settings: route subcutaneous
Rattus norvegicus [23] = experiment: Antialzheimer activity in sc dosed rat assessed as reduction in amyloid beta (1 to 40) level in plasma measured after 5 hrs by ELISA relative to control; assay type: functional, organism-based
Rattus norvegicus [24] = experiment: Antialzheimer activity in rat assessed as amyloid beta (1 to 40) level in brain at 5 mg/kg, sc measured after 5 hrs by ELISA relative to control; assay type: functional; settings: route subcutaneous
Rattus norvegicus [25] = experiment: Antialzheimer activity in rat assessed as amyloid beta (1 to 40) level in plasma at 40 mg/kg, sc preadministered with ABT measured after 5 hrs by ELISA relative to control; assay type: functional; settings: route subcutaneous
Rattus norvegicus [26] = experiment: Antialzheimer activity in rat assessed as amyloid beta (1 to 40) level in plasma at 15 mg/kg, sc measured after 5 hrs by ELISA relative to control; assay type: functional; settings: route subcutaneous
Rattus norvegicus [27] = experiment: Antialzheimer activity in rat assessed as amyloid beta (1 to 40) level in plasma at 5 mg/kg, sc measured after 5 hrs by ELISA relative to control; assay type: functional; settings: route subcutaneous
[28] = target: Voltage-gated inwardly rectifying potassium channel KCNH2 (Homo sapiens, UniProt Q12809); experiment: Activity at human ERG channel by fluorescence-based thallium flux assay
Beta-secretase 1 [29] = target: T1, Beta-secretase 1; experiment: Ratio of IC50 for BACE1 in HEK293 cells expressing APP 695 Swedish mutant to Ki for BACE1; assay type: cell-based

T1 sequence (P56817 whole entry): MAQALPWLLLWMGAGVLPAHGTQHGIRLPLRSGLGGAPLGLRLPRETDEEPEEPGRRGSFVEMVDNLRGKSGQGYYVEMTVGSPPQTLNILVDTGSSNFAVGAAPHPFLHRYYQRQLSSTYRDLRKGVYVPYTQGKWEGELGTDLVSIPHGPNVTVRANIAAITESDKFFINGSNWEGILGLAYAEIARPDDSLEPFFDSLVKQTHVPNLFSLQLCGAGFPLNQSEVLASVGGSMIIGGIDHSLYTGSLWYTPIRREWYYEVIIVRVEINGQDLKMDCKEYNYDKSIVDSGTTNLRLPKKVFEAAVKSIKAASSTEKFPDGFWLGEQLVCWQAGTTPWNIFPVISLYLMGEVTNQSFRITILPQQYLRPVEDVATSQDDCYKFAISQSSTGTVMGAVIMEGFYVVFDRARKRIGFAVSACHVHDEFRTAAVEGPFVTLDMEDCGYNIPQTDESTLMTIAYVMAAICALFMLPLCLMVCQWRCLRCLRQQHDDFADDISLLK
Chain of Cathepsin D (Homo sapiens) (P07339 65-162 limits assumed): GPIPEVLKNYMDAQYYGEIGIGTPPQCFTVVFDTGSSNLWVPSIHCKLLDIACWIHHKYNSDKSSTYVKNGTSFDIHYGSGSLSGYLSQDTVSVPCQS
Chain of Cathepsin D (Homo sapiens) (P07339 169-412 limits assumed): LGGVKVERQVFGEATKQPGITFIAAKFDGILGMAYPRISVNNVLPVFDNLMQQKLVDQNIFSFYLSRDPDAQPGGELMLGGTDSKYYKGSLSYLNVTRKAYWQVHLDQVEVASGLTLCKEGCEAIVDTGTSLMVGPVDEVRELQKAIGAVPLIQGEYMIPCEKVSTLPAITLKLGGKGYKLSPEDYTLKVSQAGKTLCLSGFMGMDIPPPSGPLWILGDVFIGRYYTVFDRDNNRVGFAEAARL
Chain of Voltage-gated inwardly rectifying potassium channel KCNH2 (Q12809 whole entry): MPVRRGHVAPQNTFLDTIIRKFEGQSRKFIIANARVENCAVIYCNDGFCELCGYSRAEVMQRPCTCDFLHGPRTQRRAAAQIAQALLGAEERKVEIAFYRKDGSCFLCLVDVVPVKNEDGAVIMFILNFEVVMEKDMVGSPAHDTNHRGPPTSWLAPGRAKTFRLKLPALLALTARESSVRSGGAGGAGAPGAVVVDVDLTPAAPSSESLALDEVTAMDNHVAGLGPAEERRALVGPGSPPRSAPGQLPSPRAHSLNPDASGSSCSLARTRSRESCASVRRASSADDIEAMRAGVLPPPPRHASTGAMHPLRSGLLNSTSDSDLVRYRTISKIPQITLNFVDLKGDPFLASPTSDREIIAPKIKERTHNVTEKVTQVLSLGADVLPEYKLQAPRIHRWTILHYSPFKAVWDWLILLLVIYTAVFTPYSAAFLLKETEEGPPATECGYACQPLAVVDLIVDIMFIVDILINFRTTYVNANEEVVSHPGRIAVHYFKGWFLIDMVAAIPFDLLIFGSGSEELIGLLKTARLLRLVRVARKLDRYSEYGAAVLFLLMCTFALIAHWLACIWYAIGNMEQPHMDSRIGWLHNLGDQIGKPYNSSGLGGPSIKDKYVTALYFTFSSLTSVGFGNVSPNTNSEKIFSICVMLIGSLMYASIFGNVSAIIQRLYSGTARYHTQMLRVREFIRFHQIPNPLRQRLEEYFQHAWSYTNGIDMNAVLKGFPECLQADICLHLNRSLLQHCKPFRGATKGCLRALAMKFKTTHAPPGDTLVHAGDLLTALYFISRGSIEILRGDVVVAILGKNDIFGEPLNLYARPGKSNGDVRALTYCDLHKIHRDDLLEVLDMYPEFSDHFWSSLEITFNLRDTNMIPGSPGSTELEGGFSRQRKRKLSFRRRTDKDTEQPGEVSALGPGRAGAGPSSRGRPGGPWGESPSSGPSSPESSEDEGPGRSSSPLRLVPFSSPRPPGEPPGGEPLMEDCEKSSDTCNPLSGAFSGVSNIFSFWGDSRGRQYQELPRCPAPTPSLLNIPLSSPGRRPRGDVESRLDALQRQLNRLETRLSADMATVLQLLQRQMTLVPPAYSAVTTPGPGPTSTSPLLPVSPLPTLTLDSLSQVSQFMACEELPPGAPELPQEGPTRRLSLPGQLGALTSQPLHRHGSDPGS

COc1ccc(-c2nsc(C)c2C(=O)NC(N)=NCc2cc(Cl)c(NC(=O)CN3CCC3)c(Cl)c2)cc1
IC50 (Beta-secretase 1 [1]): 8 nM
IC50 (Beta-secretase 1 [2]): 180 nM
IC50 (Beta-secretase 1 [3]): 8 nM
Ki (Beta-secretase 1 [4]): 4 nM

COc1ccc(-c2noc(C)c2C(=O)/N=C(\N)NCc2cc(Cl)cc(Cl)c2)cc1
Ratio IC50 (Beta-secretase 1 [5]): 0.8
IC50 (Beta-secretase 1 [1]): 3900 nM
IC50 (Beta-secretase 1 [2]): 3300 nM
IC50 (Beta-secretase 1 [3]): 1600 nM
Ki (Beta-secretase 1 [4]): 670 nM

COc1ccc(-c2nsc(C)c2C(=O)/N=C(\N)NCc2cc(C)c(NC(=O)CN3CCC3)c(Cl)c2)cc1
inhibition [6]: inactive
inhibition [7]: inactive
inhibition [8]: inactive
Ratio IC50 (Beta-secretase 1 [5]): 36
IC50 (Beta-secretase 1 [1]): 5 nM
IC50 (Beta-secretase 1 [2]): 180 nM
concentration at 5 h [9]: 39 nM
concentration at 5 h [10]: 8 nM
concentration at 5 h [11]: 4 nM
concentration at 5 h [12]: 586 nM
concentration at 5 h [13]: 320 nM
concentration at 5 h [14]: 89 nM
concentration at 5 h [15]: 6.64 µM
concentration at 5 h [16]: 378 nM
concentration at 5 h [17]: 1170 nM
Activity (Rattus norvegicus [18]): 82%
Activity (Rattus norvegicus [19]): 98%
Activity (Rattus norvegicus [20]): 105%
Activity (Rattus norvegicus [21]): 94%
Activity (Rattus norvegicus [22]): 102%
Activity (Rattus norvegicus [23]): Dose-dependent effect
Activity (Rattus norvegicus [24]): 89%
Activity (Rattus norvegicus [25]): 4%
Activity (Rattus norvegicus [26]): 8%
Activity (Rattus norvegicus [27]): 18%
Activity [28]: Not Active
Ratio (Beta-secretase 1 [29]): 1
IC50 (Beta-secretase 1 [3]): 5 nM
Ki (Beta-secretase 1 [4]): 5 nM

COc1ccc(-c2nsc(C)c2C(=O)/N=C(\N)NCc2cc(Cl)c(NC(C)=O)c(Cl)c2)cc1
Ratio IC50 (Beta-secretase 1 [5]): > 32
IC50 (Beta-secretase 1 [1]): 310 nM
IC50 (Beta-secretase 1 [2]): > 10000 nM
Ratio (Beta-secretase 1 [29]): 62
IC50 (Beta-secretase 1 [3]): 310 nM
Ki (Beta-secretase 1 [4]): 5 nM

COc1ccc(-c2nsc(C)c2C(=O)/N=C(/N)NCc2cc(Cl)c(N)c(Cl)c2)cc1
IC50 (Beta-secretase 1 [1]): 1030 nM
IC50 (Beta-secretase 1 [2]): 1700 nM
IC50 (Beta-secretase 1 [3]): 630 nM
Ki (Beta-secretase 1 [4]): 40 nM
